Like-named read-outs stand apart in the source and are kept apart here.
How the values were obtained:
[1] = Phase 1 DDI study: single-dose zanubrutinib PK alone and with steady-state rifabutin (NCT04470908); assay type: in vivo, human; settings: for half-life: arithmetic mean (SD)
Excerpt: This study was designed, conducted, and monitored according to sponsor procedures, and complied with the ethical principles of Good Clinical Practice, International Council for Harmonisation of Technical Requirements for Pharmaceuticals for Human Use, the Declaration of Helsinki, and local regulatory requirements. All volunteers provided written, informed consent before study entry. Midlands Independent Review Board (MLIRB (now WCG IRB), Overland Park, Kansas) reviewed and approved the protocol at the respective study center.
Volunteers were screened for eligibility during the screening period (from day −28 through day −2). Those who met all the inclusion criteria and none of the exclusion criteria were admitted into the clinical research unit (CRU) on day −1 and confined to the CRU until discharge on day 13. […] Volunteers were discharged on day 13 after satisfactory completion of study-related procedures.
A single dose of rifabutin (300 mg) was given orally as 2×150 mg capsules with food on days 3-10 and in the fasted state on day 11.
Noncompartmental analysis was conducted using Phoenix® WinNonlin™ version 8.1 (Certara USA, Inc., Princeton, New Jersey, USA).
Protein precipitation was utilized to extract the analyte and internal standard from human plasma containing dipotassium ethylenediaminetetraacetic acid (K2EDTA) as an anticoagulant.
The geometric least squares mean (GLSM) and their ratios were obtained by taking the exponential of the corresponding estimates of LSM and their differences on the natural logarithm scale, where ratio=test/reference. Within-subject CV was calculated as 100×square root[exp(mean square error from the analysis model)−1].

[2] = Phase 1 DDI study: treatment-emergent adverse events; assay type: in vivo, human
Description: Safety was assessed by monitoring and recording of adverse events (AEs), serious adverse events (SAEs), clinical laboratory tests, physical examinations, and vital signs. […] A TEAE was defined as an AE that started during or after the first dose or started before the first dose and increased in severity after the first dose. AEs were classified based on MedDRA Version 24.0.
Safety and tolerability were assessed, when applicable, by incidence, severity, change from baseline values, and abnormal values for all relevant parameters such as AEs, laboratory parameters, vital signs, and physical examination.

P-glycoprotein = target: T1, P-glycoprotein (Homo sapiens, UniProt P08183); settings: repeated dosing of zanubrutinib; cited from earlier work
T1 construct: endogenous in cells; host or cells: human subjects in vivo (clinical study)

[3] = 320 mg zanubrutinib + 300 mg rifabutin (test)
[4] = 320 mg zanubrutinib + 300 mg rifabutin, median (min-max)

T1 sequence (P08183 whole entry): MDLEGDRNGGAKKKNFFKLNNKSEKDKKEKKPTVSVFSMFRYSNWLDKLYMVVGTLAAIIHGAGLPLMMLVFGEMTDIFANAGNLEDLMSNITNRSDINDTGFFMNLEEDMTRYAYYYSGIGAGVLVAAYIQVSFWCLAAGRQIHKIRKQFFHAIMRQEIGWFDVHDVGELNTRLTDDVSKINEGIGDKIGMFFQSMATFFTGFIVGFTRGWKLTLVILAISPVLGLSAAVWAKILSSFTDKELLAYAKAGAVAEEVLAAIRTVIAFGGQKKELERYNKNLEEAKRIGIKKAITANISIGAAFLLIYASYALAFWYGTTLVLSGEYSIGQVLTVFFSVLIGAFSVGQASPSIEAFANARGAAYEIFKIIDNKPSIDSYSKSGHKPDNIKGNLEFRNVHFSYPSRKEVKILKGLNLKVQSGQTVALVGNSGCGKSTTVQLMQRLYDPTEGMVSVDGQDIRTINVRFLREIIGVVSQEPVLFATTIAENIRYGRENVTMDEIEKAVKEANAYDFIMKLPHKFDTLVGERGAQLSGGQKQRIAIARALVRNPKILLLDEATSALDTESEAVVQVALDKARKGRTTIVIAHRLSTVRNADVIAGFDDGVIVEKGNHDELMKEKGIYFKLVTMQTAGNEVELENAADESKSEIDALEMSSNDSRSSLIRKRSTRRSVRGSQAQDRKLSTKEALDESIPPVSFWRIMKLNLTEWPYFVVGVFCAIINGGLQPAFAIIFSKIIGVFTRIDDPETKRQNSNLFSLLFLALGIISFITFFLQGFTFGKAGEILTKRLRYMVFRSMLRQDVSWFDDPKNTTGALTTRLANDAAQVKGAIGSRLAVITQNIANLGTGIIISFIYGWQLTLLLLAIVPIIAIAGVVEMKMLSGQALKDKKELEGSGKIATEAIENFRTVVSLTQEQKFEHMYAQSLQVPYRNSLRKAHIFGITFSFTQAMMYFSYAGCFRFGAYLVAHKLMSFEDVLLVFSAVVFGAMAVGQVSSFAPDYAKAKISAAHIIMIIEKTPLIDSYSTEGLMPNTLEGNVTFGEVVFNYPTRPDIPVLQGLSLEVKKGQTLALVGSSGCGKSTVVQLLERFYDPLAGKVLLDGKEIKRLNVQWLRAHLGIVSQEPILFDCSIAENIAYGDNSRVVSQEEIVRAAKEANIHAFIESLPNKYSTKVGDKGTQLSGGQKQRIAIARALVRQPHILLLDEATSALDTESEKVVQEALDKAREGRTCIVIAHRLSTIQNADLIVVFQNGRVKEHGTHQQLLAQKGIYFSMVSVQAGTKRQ

C=CC(=O)N1CCC([C@@H]2CCNc3c(C(N)=O)c(-c4ccc(Oc5ccccc5)cc4)nn32)CC1 [zanubrutinib, (S)-7-(1-acryloylpiperidin-4-yl)-2-(4-phenoxyphenyl)-4,5,6,7-tetrahydropyrazolo[1,5-a]pyrimidine-3-carboxamide]
AUC0-t GLSM ([1]; 320 mg zanubrutinib (reference)): 2700 ng·h/mL
AUC0-t GLSM [1, 3]: 1530 ng·h/mL
Cmax GLSM [1, 3]: 253 ng/mL
Tlast [1, 4]: 36.0 (24.0-36.0) [13] h
Tmax [1, 4]: 2.0 h
Tlast ([1]; 320 mg zanubrutinib alone, median (min-max)): 36.0 (24.0-36.0) [13] h
AUC(0-t) ([1]; human, plasma, oral, 320 mg): 2700 ng·h/mL
Cmax ([1]; human, plasma, oral, 320 mg): 489 ng/mL
Vd/F ([1]; human, plasma, oral, 320 mg): 1080 L
AUC(0-inf) ([1]; human, plasma, oral, 320 mg zanubrutinib + 300 mg rifabutin (test), read-out: AUC0-∞ GLSM): 1560 ng·h/mL
half-life ([1]; human, plasma, oral, 320 mg zanubrutinib + 300 mg rifabutin): 7 h
AUC(0-inf) ([1]; human, plasma, oral, 320 mg zanubrutinib + 300 mg rifabutin, geometric mean (CV), read-out: AUC0-∞): 1590 ng·h/mL
AUC(0-inf) ([1]; human, plasma, oral, 320 mg, 320 mg zanubrutinib (reference), read-out: AUC0-∞ GLSM): 2780 ng·h/mL
half-life ([1]; human, plasma, oral, 320 mg, 320 mg zanubrutinib alone): 7.2 h
AUC(0-inf) ([1]; human, plasma, oral, 320 mg, 320 mg zanubrutinib alone, geometric mean (CV), read-out: AUC0-∞): 2780 ng·h/mL
Tmax ([1]; human, plasma, oral, 320 mg, read-out: Tmax): 1.5 h
AUC0-t within-subject CV ([1]; in vivo): 10.7%
AUC0-∞ within-subject CV ([1]; in vivo): 7.0%
Cmax within-subject CV ([1]; in vivo): 23.2%
Reduction in zanubrutinib exposure ([1]; with moderate CYP3A inducer, e.g. rifabutin): approximately 2 fold
GMR (exposure) ([1]; with vs without rifabutin): 57%
General disorders and administration site conditions TEAE ([2]; N = 13): 1 (7.7) n (%)
Overall TEAEs ([2]; N = 13): 1 (7.7) n (%)
Vessel puncture site hematoma TEAE ([2]; N = 13): 1 (7.7) n (%)
Tolerability ([2]; single 320 mg dose alone or with 300 mg rifabutin, healthy volunteers): well tolerated
Mean increase of digoxin AUC0-t (P-glycoprotein): 11%
Mean increase of digoxin Cmax (P-glycoprotein): 34%

Reference: US11911386B2, “Methods of treating B-cell proliferative disorder” (BeiGene Switzerland GmbH, priority 2022, dated 2024)
